Values after ≈ are worked out from the molar mass of the structure shown.
Assay: Antitubercular activity against Mycobacterium tuberculosis H37Ra ATCC 25177 after 21 days by agar dilution method
Format: functional
Conditions: ATCC 25177, 504 h

Row | SMILES | MIC [µg/mL]
1 | COc1ccc(-n2c(-c3ccc(C)cc3)cc(CN3CCSCC3)c2C)cc1 | 1 (≈ 2.55 µM)
2 | CCc1ccc(-c2cc(CN3CCSCC3)c(C)n2-c2ccc(OC)cc2)cc1 | 0.5 (≈ 1.23 µM)
3 | CSc1ccc(-n2c(-c3ccc(C)cc3)cc(CN3CCSCC3)c2C)cc1 | 1 (≈ 2.45 µM)
4 | CSc1ccccc1-n1c(-c2ccc(F)cc2)cc(CN2CCSCC2)c1C | 8 (≈ 19.4 µM)
5 | CSc1ccc(-c2cc(CN3CCSCC3)c(C)n2-c2ccc(F)cc2)cc1 | < 0.125
6 | Cc1nn(-c2ccc(Cl)cc2)c(O)c1C(=O)c1ccccc1 | 25 (≈ 79.9 µM)
7 | O=S(=O)(Nc1nc2ccccc2[nH]1)c1ccc(Cl)cc1 | 32 (≈ 104 µM)
8 | Cc1nn(-c2ccccc2)c(O)c1C(=O)c1ccc([N+](=O)[O-])cc1 | > 100
9 | CC(C)c1[nH]n(-c2ccc(Cl)cc2)c(=O)c1C(=O)c1ccc(Cl)cc1 | 32 (≈ 85.3 µM)
10 | Cc1[nH]n(-c2ccc(Br)cc2)c(=O)c1C(=O)c1ccc(Cl)cc1 | 4 (≈ 10.2 µM)
11 | O=C(c1ccc(Cl)cc1)c1c(C(F)(F)F)[nH]n(-c2ccc(Cl)cc2)c1=O | > 64
12 | CC(C)c1[nH]n(-c2ccccc2)c(=O)c1C(=O)c1ccc(Cl)cc1 | 64 (≈ 188 µM)
13 | Cc1[nH]n(-c2ccc(F)cc2)c(=O)c1C(=O)c1ccc(Cl)cc1 | 12.5 (≈ 37.8 µM)
14 | Cc1[nH]n(-c2ccc(Cl)cc2)c(=O)c1C(=O)c1ccc(Cl)cc1 | 6.25 (≈ 18 µM)
15 | O=C(c1ccc(Cl)cc1)c1c(C(F)(F)F)[nH]n(-c2ccccc2)c1=O | > 64
16 | O=C(c1ccc(Cl)cc1)c1c(-c2ccccc2)[nH]n(-c2ccc(Cl)cc2)c1=O | 16 (≈ 39.1 µM)
17 | Cc1[nH]n(-c2ccccc2)c(=O)c1C(=O)c1cccc(F)c1 | 25 (≈ 84.4 µM)
18 | O=C(O[C@H](Cn1ccnc1)c1ccc(Cl)cc1)N1CCN(c2ccc(Cl)cc2)CC1 | 16 (≈ 35.9 µM)
19 | CC(C)c1ccc(NC(=O)O[C@H](Cn2ccnc2)c2ccc(F)cc2)cc1 | 16 (≈ 43.5 µM)
20 | O=C(NCCCn1ccnc1)O[C@H](Cn1ccnc1)c1ccc(F)cc1 | 32 (≈ 89.5 µM)
21 | O=C(Nc1ccc(Sc2ccc([N+](=O)[O-])cc2)cc1)O[C@H](Cn1ccnc1)c1ccc(Cl)cc1 | 16 (≈ 32.3 µM)
22 | Cc1nn2c(=O)c3c([nH]c2c1-c1ccc(Cl)cc1)CCC3 | 8 (≈ 26.7 µM)

Row | SMILES | MIC [µg/mL]
23 | CCCc1cc(=O)n2nc(C)c(-c3ccc(Cl)cc3)c2[nH]1 | 8 (≈ 26.5 µM)
24 | Cc1cc(=O)n2nc(C)c(-c3ccc(Cl)cc3)c2[nH]1 | 32 (≈ 117 µM)
25 | O=C(O[C@H](Cn1ccnc1)c1ccc(F)cc1)N1CCN(c2ccc([N+](=O)[O-])cc2)CC1 | 32 (≈ 72.8 µM)
26 | Cc1cc(/C=N\OCc2ccccc2)c(C)n1-c1ccc(F)cc1 | 25 (≈ 77.5 µM)
27 | CCC/N=C(\c1ccc(Cl)cc1)c1c(C)nn(-c2ccc(Cl)cc2)c1O | > 100
28 | Clc1cccc(CSc2nnc(-c3ccc(Cl)cc3Cl)o2)c1 | 32 (≈ 86.1 µM)
29 | O=C(O[C@H](Cn1ccnc1)c1ccc(F)cc1)N1CCN(C(=O)c2ccco2)CC1 | 64 (≈ 155 µM)
30 | CCOc1ccc(NC(=O)C(Cc2ccccc2)N2C(=O)c3ccccc3C2=O)cc1 (configuration not stated) | 32 (≈ 77.2 µM)
31 | CCN(Cc1cc2cc(C)c(C)cc2[nH]c1=O)c1ccc(OC)cc1C | > 64
32 | Cc1cc(/C=N\OCc2cccc(F)c2)c(C)n1-c1ccc(F)cc1 | > 100
33 | O=C1NN(c2ccc(Cl)cc2)C(=O)/C1=C/c1ccc(Cl)cc1Cl | 32 (≈ 87 µM)
34 | O=C(O[C@H](Cn1ccnc1)c1ccc(F)cc1)N1CCN(c2ccc(Cl)c(Cl)c2)CC1 | 16 (≈ 34.5 µM)
35 | O=C(O[C@H](Cn1ccnc1)c1ccc([N+](=O)[O-])cc1)N1CCN(c2ccc(Cl)c(Cl)c2)CC1 | 16 (≈ 32.6 µM)
36 | CCCc1cc(=O)n2nc(C)c(-c3ccc(OC)cc3)c2[nH]1 | 32 (≈ 108 µM)
37 | Cc1cc(/C=N\OCc2ccc(Cl)cc2)c(C)n1-c1ccc(F)cc1 | 50 (≈ 140 µM)
38 | CN1C(=O)C2C(N=C(Oc3ccc(Cl)cc3)N2Cc2cccc(F)c2)N(C)C1=O (configuration not stated) | 64 (≈ 154 µM)
39 | Cc1nn(-c2ccccc2)c(O)c1C(=O)c1ccc2ccccc2c1 | 25 (≈ 76.1 µM)
40 | O=C(CSc1nc2cc(Cl)ccc2s1)c1ccc(Cl)cc1 | 32 (≈ 90.3 µM)
41 | O=C(O[C@H](Cn1ccnc1)c1cccc2ccccc12)N1CCN(c2ccc(Cl)c(Cl)c2)CC1 | 16 (≈ 32.3 µM)
42 | C=CCN1CC(c2nc3ccccc3n2Cc2cccc(Cl)c2)CC1=O (configuration not stated) | 32 (≈ 87.5 µM)
43 | COc1ccc(CO/N=C\c2cc(C)n(-c3ccc(F)cc3)c2C)cc1 | > 100
44 | Cc1ccc(C2NC(=O)NC(O)(C(F)(F)F)C2C(=O)c2ccc(Cl)cc2)cc1 (configuration not stated) | 32 (≈ 77.5 µM)

Row | SMILES | MIC [µg/mL]
45 | O=C1C/C(=N\c2ccc(Cl)cc2)SC1Cc1ccc(Cl)cc1 (configuration not stated) | 32 (≈ 91.4 µM)
46 | Cc1nn(C(C)CNC(=O)C2(c3ccc(Cl)cc3)CCOCC2)c(C)c1C (configuration not stated) | 64 (≈ 164 µM)
47 | O=C1S/C(=C\c2ccc(-c3cccc(Cl)c3Cl)o2)C(=O)N1c1ccc(Cl)cc1 | 64 (≈ 142 µM)
48 | O=C(O[C@H](Cn1ccnc1)c1ccccc1)N1CCN(c2ccc(Cl)c(Cl)c2)CC1 | 16 (≈ 35.9 µM)
49 | Cc1nn(-c2ccc(Cl)cc2)c(O)c1/C(=N/C1CC1)c1ccc(Cl)cc1 | > 100
50 | C=C(C)Cn1c(S)nnc1CCn1c2ccc(Cl)cc2c2cc(Cl)ccc21 | 32 (≈ 76.7 µM)
51 | COc1ccc(-n2c(-c3ccc(Br)cc3)cc3c2CC(C)(C)CC3=O)c(OC)c1 | 64 (≈ 141 µM)
52 | CCOC(=O)c1cnc2c(Cl)c(Cl)ccc2c1NCc1cccnc1 | 32 (≈ 85.1 µM)
53 | Cc1nn(-c2ccccc2)c(O)c1/C(=N/Cc1ccccc1)c1ccc(Cl)cc1 | > 100
54 | CCCOc1ccc2c(c1)sc1ncc(NC(=O)c3ccc(Cl)cc3)c(=O)n12 | 32 (≈ 77.3 µM)
55 | O=C(O[C@H](Cn1ccnc1)c1ccc(Cl)cc1Cl)N1CCN(c2ccc(Cl)c(Cl)c2)CC1 | 8 (≈ 15.6 µM)
56 | O=C(C1=C(O)C(=O)N(c2ccccc2)C1c1ccccc1F)c1ccc(Cl)cc1 (configuration not stated) | 32 (≈ 78.5 µM)
57 | C=CCn1cnc2sc(C)c(-c3ccc(Cl)cc3)c2c1=O | 32 (≈ 101 µM)
58 | O=C(O[C@H](Cn1ccnc1)c1ccc(Cl)cc1)N1CCN(C(=O)c2ccco2)CC1 | 64 (≈ 149 µM)
59 | Cc1nn(-c2ccccc2)c(O)c1C(=O)c1cccs1 | 50 (≈ 176 µM)
60 | Cc1nn(-c2ccccc2)c(O)c1C(=O)/C=C/c1ccccc1 | 50 (≈ 164 µM)
61 | Cc1nn(C(=O)c2cccc([N+](=O)[O-])c2)c(C)c1Sc1ccc(Cl)cc1 | 32 (≈ 82.5 µM)
62 | O=C(O[C@H](Cn1ccnc1)c1ccc(-c2ccccc2)cc1)N1CCN(c2ccc(Cl)c(Cl)c2)CC1 | 16 (≈ 30.7 µM)
63 | Clc1ccc(C2=CSC3=NN=C(SCc4ccccn4)C23)cc1 (configuration not stated) | 64 (≈ 179 µM)
64 | Cc1cc(/C=N\OCc2ccc([N+](=O)[O-])cc2)c(C)n1-c1ccc(F)cc1 | > 100
65 | Cc1nn(-c2ccccc2)c(O)c1C(=O)c1cccnc1 | > 100
66 | Cc1nn(-c2ccc(Cl)cc2)c(O)c1/C(=N/OCc1ccccc1)c1ccc(Cl)cc1 | > 100

Row | SMILES | MIC [µg/mL]
67 | Cc1ccc(-n2c(C)cc(/C=N\OCc3ccccc3)c2C)cc1 | > 100
68 | COCc1cc(=O)n2nc(C)c(-c3ccccc3OC)c2[nH]1 | 32 (≈ 107 µM)
69 | CN(C(=O)c1cccc(Cl)c1)c1nc(-c2ccccc2)cs1 | 64 (≈ 195 µM)
70 | COC(=O)C1=C(C)N(Cc2ccc(C)cc2)C(=O)/C1=C\c1ccc(C)cc1OC | 32 (≈ 81.7 µM)
71 | COc1ccc(-n2c(SC)nnc2-c2ccc(Cl)cc2)c(OC)c1 | 32 (≈ 88.4 µM)
72 | Cc1nn(-c2ccc(F)cc2)c(OC(=O)c2ccccc2)c1C(=O)c1ccccc1 | 25 (≈ 62.4 µM)
73 | CNCCC/C(=C1\C(=O)N(c2ccc(Cl)cc2)N=C1C)c1ccc(Cl)cc1 | 64 (≈ 159 µM)
74 | CO/N=C(\c1ccc(Cl)cc1)c1c(C)nn(-c2ccc(Cl)cc2)c1O | 25 (≈ 66.4 µM)
75 | CO/N=C(\c1ccc(Cl)cc1)c1c(C)nn(-c2ccccc2)c1O | 25 (≈ 73.1 µM)
76 | CC1=NN(c2ccc(Cl)cc2)C(=O)/C1=C\N1CCNCC1C(=O)c1ccco1 (configuration not stated) | 32 (≈ 80.2 µM)
77 | Cc1ccccc1C(=O)c1c(C)nn(-c2ccccc2)c1O | 50 (≈ 171 µM)
78 | O=C(O[C@H](Cn1ccnc1)c1ccc(F)cc1)N1CCN(c2ccc(Cl)cc2)CC1 | 16 (≈ 37.3 µM)
79 | COc1ccc(C(CNS(=O)(=O)N2CCCC2)c2c[nH]c3ccccc23)cc1 (configuration not stated) | 32 (≈ 80.1 µM)
80 | O=C(Cc1noc(-c2ccncc2)n1)Nc1cc(Cl)cc(Cl)c1 | 32 (≈ 91.6 µM)
81 | Cc1nn(-c2ccccc2)c(O)c1/C(=N/OCc1ccccc1)c1ccc(Cl)cc1 | > 100
82 | Cc1cc(/C=N\OCc2ccccc2)c(C)n1-c1ccccc1 | > 100
83 | Cc1ccc(C(=O)Oc2c(C(=O)c3ccc(C)cc3)c(C)nn2-c2ccccc2)cc1 | > 100
84 | O=C(O[C@H](Cn1ccnc1)c1ccc(Cl)cc1)c1cccc(C(F)(F)F)c1 | 16 (≈ 40.5 µM)
85 | Cc1ncc(-c2cc(=O)n3nc(C)c(-c4ccc(Cl)cc4)c3[nH]2)c(C)n1 | 2 (≈ 5.47 µM)
86 | C/C(=N\OC(=O)COc1ccc(Cl)cc1Cl)c1ccc(Br)cc1 | 32 (≈ 76.7 µM)
87 | Cc1ccc(-n2nc(C)c(C(=O)c3ccc(Cl)cc3)c2O)cc1 | 16 (≈ 49 µM)
88 | Cc1c(C(=O)c2ccc(Cl)cc2)c(=O)n(-c2ccc(Cl)cc2)n1Cc1ccc(F)cc1 | 32 (≈ 70.3 µM)

Row | SMILES | MIC [µg/mL]
89 | Cc1c(C(=O)c2ccc(Cl)cc2)c(=O)n(-c2ccc(Cl)cc2)n1Cc1ccccc1 | 16 (≈ 36.6 µM)
90 | Cc1c(C(=O)c2ccc(Cl)cc2)c(=O)n(-c2ccccc2)n1Cc1ccc(F)cc1 | 32 (≈ 76 µM)
91 | Cc1c(C(=O)c2ccc(Cl)cc2)c(=O)n(-c2ccc(Cl)cc2)n1Cc1ccc([N+](=O)[O-])cc1 | 32 (≈ 66.3 µM)
92 | COCc1cc(=O)n2nc(C)c(-c3ccc(Cl)cc3)c2[nH]1 | 16 (≈ 52.7 µM)
93 | Cc1c(C(=O)c2ccc(Cl)cc2)c(=O)n(-c2ccccc2)n1Cc1ccc([N+](=O)[O-])cc1 | > 32
94 | Cc1nn(-c2ccccc2)c(O)c1C(=O)c1ccc(Cl)cc1 | 6.25 (≈ 20 µM)
95 | Cc1c(C(=O)c2ccc(Cl)cc2)c(=O)n(-c2ccccc2)n1Cc1ccccc1 | > 64
96 | CC1=NN(c2ccc(Cl)cc2)C(=O)/C1=C\N(C)C | > 64
97 | CC1=NN(c2ccc(Cl)cc2)C(=O)/C1=C\N1CCN(c2ccccc2)CC1 | 64 (≈ 168 µM)
98 | CC(=O)N1CCN(/C=C2\C(=O)N(c3ccc(Cl)cc3)N=C2C)CC1 | 64 (≈ 185 µM)
99 | CC1=NN(c2ccc(Cl)cc2)C(=O)/C1=C\N1CCN(CCO)CC1 | 64 (≈ 183 µM)
100 | CC1=NN(c2ccc(Cl)cc2)C(=O)/C1=C\Nc1ccccc1 | 64 (≈ 205 µM)
101 | CCc1c(CN2CCSCC2)cc(-c2ccc(F)cc2)n1-c1ccccc1F | 2 (≈ 5.02 µM)
102 | CCc1c(CN2CCSCC2)cc(-c2ccccc2F)n1-c1ccccc1F | 4 (≈ 10 µM)
103 | CC1=NN(c2ccc(Cl)cc2)C(=O)/C1=C\N1CCOCC1 | 64 (≈ 209 µM)
104 | CCc1c(CN2CCSCC2)cc(-c2ccccc2)n1-c1ccccc1 | 2 (≈ 5.52 µM)
105 | CCc1c(CN2CCN(C)CC2)cc(-c2ccc(Cl)cc2)n1-c1ccc(Cl)cc1 | 2 (≈ 4.67 µM)
106 | CCc1c(CN2CCSCC2)cc(-c2ccccc2)n1-c1ccc(F)cc1 | 2 (≈ 5.26 µM)
107 | CC1=NN(c2ccc(Cl)cc2)C(=O)/C1=C\N1CCN(C)CC1 | 64 (≈ 201 µM)

Source: ChEMBL document CHEMBL3856210, “Discovery of in vitro antitubercular agents through in silico ligand-based approaches” (Eur J Med Chem, 2016)
